Assay results reported in patent US20240246940A1, “HETEROARYL DERIVATIVE COMPOUND AND USE THEREOF” (VORONOI INC., priority 2021, published 2024).

Experiments:
Type in all cases: cell-based
[1] = tested on: SK-BR-3 cells (HER2 overexpressing cell line); experiment: SK-BR-3 cell proliferation inhibitory activity (CellTiter-Glo, 120 hours); details: Homo sapiens
Summary of the method: (§1)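 GI50 derived from % growth versus control from CellTiter-Glo luminescence, each test run three times. SK-BR-3 and BT-474 are seeded 48 h ahead at 5000/well and dosed at 0.2 nM–10 μM. N-87 (5000/well) gets […]–5 μM and HaCaT (3000/well) gets 0.8 nM–45 μM, both seeded 24 h ahead.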

[2] = tested on: N-87 cells (HER2 overexpressing cell line); experiment: N-87 cell proliferation inhibitory activity (CellTiter-Glo, 72 hours)
Method: To evaluate the cell proliferation inhibitory activity of the compound according to the present invention on HER2 and EGFR kinases, the following method was performed using HER2 overexpressing cell lines (SK-BR-3, BT-474, and N-87) and EGFR expressing cell line (HaCaT).
McCOY'S 5A supplemented with 10% FBS was used for SK-BR-3 cells, RPMI-1640 medium supplemented with 20% FBS was used for BT-474 cancer cells, and RPMI-1640 medium supplemented with 10% FBS was used for N-87 cancer cells. DMEM supplemented with 10% FBS was used for HaCaT cells.
For SK-BR-3 cells, 5000 cells were aliquoted into each well of a white clear bottom 96 well plate (Corning) 48 hours before treatment with the compounds of Examples. For BT-474 cells, 5000 cells were aliquoted into each well of a white clear bottom 96 well plate (Corning) 48 hours before treatment with the compounds of Examples. For N-87 cells, 5000 cells were aliquoted into each well of a white clear bottom 96 well plate (Corning) 24 hours before treatment with the compounds of Examples. For HaCaT cells, 3000 cells were aliquoted into each well of a white clear bottom 96 well plate (Corning) 24 hours before treatment with the compounds of Examples. For SK-BR-3 cells and BT-474 cells, the compounds of Examples were diluted in dimethyl sulfoxide (three-fold dilution, a total of 11 concentrations) and injected each in an amount of 1 μl to a final concentration of 0.2 nM to 10 μM. For N-87 cells, the compounds of Examples were diluted in dimethyl sulfoxide (five-fold dilution, a total of 11 concentrations) and injected each in an amount of 0.5 μl to a final concentration of […] to 5 μM. For HaCaT cells, the compounds of Examples were diluted in dimethyl sulfoxide (three-fold dilution, a total of 11 concentrations) and injected each in an amount of 0.5 μl to a final concentration of 0.8 nM to 45 μM. For the measurement of living cells, the cells were stored at room temperature for 10 minutes using CellTiter-Glo cell viability reagent (Promega) after a certain period of time (SK-BR-3: 120 hours, BT-474: 120 hours, N-87: 72 hours, and HaCaT: 72 hours) post treatment with the compounds of Examples, and the luminescence intensity thereof was measured using a reader (SynergyNeo, Biotek). Each test was repeated three times.
The result values were calculated as a cell growth rate (%) compared to those of the control group. A graph was created using the GraphPad Prism version 5.0 program, and GI50 values were calculated.

[3] = tested on: BT-474 cells (HER2 overexpressing cell line); experiment: BT-474 cell proliferation inhibitory activity (CellTiter-Glo, 120 hours); details: Homo sapiens
Summary of the method: as §1

[4] = tested on: HaCaT cells (EGFR expressing cell line); experiment: HaCaT cell proliferation inhibitory activity (CellTiter-Glo, 72 hours); details: Homo sapiens
Summary of the method: as §1

Row | Compound | GI50 [1] | GI50 [3] | GI50 [2] | GI50 [4]
1 | C=CC(=O)N1CCC(Oc2cc3c(Nc4cc(-c5cccc(N)c5F)ccc4OC)ncnc3cc2OC)CC1 [Example 163, 1-(4-((4-((3′-amino-2′-fluoro-4-methoxy-[1,1′-biphenyl]-3-yl)amino)-7-methoxy-quinazolin-6-yl)oxy)piperidin-1-yl)prop-2-en-1-one] | ≤ 150 nM | 150 to 1000 nM | ≤ 150 nM | 150 to 1000 nM
2 | C=CC(=O)N1CCC(Oc2cc3c(Nc4cc(-c5ccc(F)c(N6CCC6)c5)ccc4OC)ncnc3cc2OC)CC1 [Example 159, 1-(4-((4-((3′-(azetidin-1-yl)-4′-fluoro-4-methoxy-[1,1′-biphenyl]-3-yl)amino)-7-methoxy-quinazolin-6-yl)oxy)piperidin-1-yl)prop-2-en-1-one] |  | ≤ 150 nM | ≤ 150 nM | 150 to 1000 nM
3 | C=CC(=O)N1CCC(Oc2cc3c(Nc4cc(-c5cccc(C=C)c5)ccc4OC)ncnc3cc2OC)CC1 [Example 215, 1-(4-((7-methoxy-4-((4-methoxy-3′-vinyl-[1,1′-biphenyl]-3-yl)amino)quinazolin-6-yl)oxy)piperidin-1-yl)prop-2-en-1-one] |  | ≤ 150 nM | ≤ 150 nM | 150 to 1000 nM
4 | C=CC(=O)N1CCC(Oc2cc3c(Nc4cc(-c5cc(N)c(F)cc5F)ccc4OC)ncnc3cc2OC)CC1 [Example 170, 1-(4-((4-((5′-amino-2′,4′-difluoro-4-methoxy-[1,1′-biphenyl]-3-yl)amino)-7-methoxy-quinazolin-6-yl)oxy)piperidin-1-yl)prop-2-en-1-one] |  | ≤ 150 nM | ≤ 150 nM | ≤ 150 nM
5 | C=CC(=O)N1CCC(Oc2cc3c(Nc4cc(-c5c(F)cc(F)cc5F)ccc4OC)ncnc3cc2OC)CC1 [Example 190, 1-(4-((7-methoxy-4-((2′,4′,6′-trifluoro-4-methoxy-[1,1′-biphenyl]-3-yl)amino)quinazolin-6-yl)oxy)piperidin-1-yl)prop-2-en-1-one] |  | ≤ 150 nM | ≤ 150 nM | ≤ 150 nM
6 | C=CC(=O)N1CCC(Oc2cc3c(Nc4cc(-c5ccco5)ccc4OC)ncnc3cc2OC)[C@H](C)C1 (stereo in doubt) [Example 169, 1-((3R,4S)-4-((4-((5-(furan-2-yl)-2-methoxyphenyl)amino)-7-methoxy-quinazolin-6-yl)oxy)-3-methylpiperidin-1-yl)prop-2-en-1-one] |  | ≤ 150 nM | ≤ 150 nM | ≤ 150 nM
7 | C=CC(=O)N1CCC(Oc2cc3c(Nc4cc(-c5cccc(NC(C)=O)c5)ccc4OC)ncnc3cc2OC)CC1 [Example 224, N-(3′-((6-((1-acryloyl-piperidin-4-yl)oxy)-7-methoxy-quinazolin-4-yl)amino)-4′-methoxy-[1,1′-biphenyl]-3-yl)acetamide] |  | ≤ 150 nM | ≤ 150 nM | ≤ 150 nM
8 | C=CC(=O)N1CC(Oc2cc3c(Nc4cc(-c5ccc(F)c(NC(=O)C6CC6)c5F)ccc4OC)ncnc3cc2OC)C1 [Example 3, N-(3′-((6-((1-acryloylazetidin-3-yl)oxy)-7-methoxy-quinazolin-4-yl)amino)-2,4-difluoro-4′-methoxy-[1,1′-biphenyl]-3-yl)cyclopropan-carboxamide] |  | ≤ 150 nM | ≤ 150 nM | 150 to 1000 nM
9 | C=CC(=O)N1CCC(Oc2cc3c(Nc4cc(-c5scc6c5OCCO6)ccc4OC)ncnc3cc2OC)CC1 [Example 176, 1-(4-((4-((5-(2,3-dihydrothieno [3,4-b][1,4]dioxin-5-yl)-2-methoxyphenyl)amino)-7-methoxy-quinazolin-6-yl)oxy)piperidin-1-yl)prop-2-en-1-one] |  | ≤ 150 nM | ≤ 150 nM | ≤ 150 nM

The next lines start with results.

Row | GI50 [1] | GI50 [3] | Compound | GI50 [2] | GI50 [4]
10 | ≤ 150 nM | ≤ 150 nM | C=CC(=O)N1CCC(Nc2cc3c(Nc4cc(-c5ccco5)ccc4OC)ncnc3cc2OC2CCOC2)CC1 (centres unmarked) [Example 270, 1-(4-((4-((5-(furan-2-yl)-2-methoxyphenyl)amino)-7-((tetrahydrofuran-3-yl)oxy)quinazolin-6-yl)amino)piperidin-1-yl)prop-2-en-1-one] | ≤ 150 nM | ≤ 150 nM
11 | ≤ 150 nM | ≤ 150 nM | C=CC(=O)N1CCC(Nc2cc3c(Nc4cc(-c5ccco5)ccc4OC)ncnc3cc2OCCCN2CCOCC2)CC1 [Example 278, 1-(4-((4-((5-(furan-2-yl)-2-methoxyphenyl)amino)-7-(3-morpholinopropoxy)quinazolin-6-yl)amino)piperidin-1-yl)prop-2-en-1-one] | ≤ 150 nM | ≤ 150 nM
12 | ≤ 150 nM | ≤ 150 nM | C=CC(=O)N1CCC(Nc2cc3c(Nc4cc(-c5ccc(F)cc5F)ccc4OC)ncnc3cc2OC2CCOC2)CC1 (centres unmarked) [Example 286, 1-(4-((4-((2′,4′-difluoro-4-methoxy-[1,1′-biphenyl]-3-yl)amino)-7-((tetrahydrofuran-3-yl)oxy)quinazolin-6-yl)amino)piperidin-1-yl)prop-2-en-1-one] | ≤ 150 nM | ≤ 150 nM
13 | ≤ 150 nM | ≤ 150 nM | C=CC(=O)N1CC[C@H](Oc2cc3c(Nc4cc(-c5ccco5)ccc4OC)ncnc3cc2OC)[C@H](F)C1 (relative stereo) [Example 181, 1-(cis-3-fluoro-4-((4-((5-(furan-2-yl)-2-methoxyphenyl)amino)-7-methoxy-quinazolin-6-yl)oxy)piperidin-1-yl)prop-2-en-1-one] | ≤ 150 nM | ≤ 150 nM
14 | ≤ 150 nM | ≤ 150 nM | C=CC(=O)N1CCC(Nc2cc3c(Nc4cc(-c5ccc(F)cc5F)ccc4OC)ncnc3cc2OC)CC1 [Example 299, 1-(4-((4-((2′,4′-difluoro-4-methoxy-[1,1′-biphenyl]-3-yl)amino)-7-methoxyquinazolin-6-yl)amino)piperidin-1-yl)prop-2-en-1-one] | ≤ 150 nM | ≤ 150 nM
15 | ≤ 150 nM | ≤ 150 nM | C=CC(=O)N1CCC(Oc2cc3c(Nc4cc(-c5ccc(F)cc5F)ccc4OC4CC4)ncnc3cc2OC)CC1 [Example 260, 1-(4-((4-((4-cyclopropoxy-2′,4′-difluoro-[1,1′-biphenyl]-3-yl)amino)-7-methoxyquinazolin-6-yl)oxy)piperidin-1-yl)prop-2-en-1-one] | ≤ 150 nM | ≤ 150 nM
16 | ≤ 150 nM | ≤ 150 nM | C=CC(=O)N1CCC(Nc2cc3c(Nc4cc(-c5ccco5)ccc4OC)ncnc3cc2OC)CC1 [Example 298, 1-(4-((4-((5-(furan-2-yl)-2-methoxyphenyl)amino)-7-methoxyquinazolin-6-yl)amino)piperidin-1-yl)prop-2-en-1-one] | ≤ 150 nM | ≤ 150 nM
17 |  | ≤ 150 nM | C=CC(=O)N1CCC(Oc2cc3c(Nc4cc(-c5ccc(F)c(N6CC(F)(F)C6)c5)ccc4OC)ncnc3cc2OC)CC1 [Example 129, 1-(4-((4-((3′-(3,3-difluoroazetidin-1-yl)-4′-fluoro-4-methoxy-[1,1′-biphenyl]-3-yl)amino)-7-methoxy-quinazolin-6-yl)oxy)piperidin-1-yl)prop-2-en-1-one] | ≤ 150 nM | 150 to 1000 nM
18 |  | ≤ 150 nM | C=CC(=O)N1CC[C@@H](Oc2cc3c(Nc4cc(-c5ccco5)ccc4OC)ncnc3cc2OC)[C@H](F)C1 [Example 173, 1-((3R,4R)-3-fluoro-4-((4-((5-(furan-2-yl)-2-methoxyphenyl)amino)-7-methoxy-quinazolin-6-yl)oxy)piperidin-1-yl)prop-2-en-1-one] | ≤ 150 nM | ≤ 150 nM
